Results reported in patent US9073855B2, “BCL-2 selective apoptosis-inducing agents for the treatment of cancer and immune diseases” (AbbVie Inc., priority 2008, dated 2015).

Key:
GST-Bcl-2 = GST-Bcl-2 (Homo sapiens, UniProt P10415); assay: TR-FRET binding assay, GST-Bcl-2 with F-Bak peptide probe; details: for Ki: TR-FRET Binding Affinity, GST-Bcl-2, F-Bak peptide probe; for Binding selectivity ratio (Bcl-XL Ki/Bcl-2 Ki): ratio of TR-FRET Ki values, Bcl-XL over Bcl-2
Summary of the method: (§1)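 Competitive TR-FRET: GST-fusion protein, fluorescent Bak peptide probe and Tb-labelled anti-GST antibody incubated with compound dilution series (starting 50 μM as 2× stock, 10% DMSO) for 3 h at RT. Excitation 340/35 nm; Ki derived via Wang's exact competitive-binding equation.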

FL5.12/Bcl-2 cells = assay: FL5.12/Bcl-2 cell viability assay under IL-3 withdrawal (CellTitre Glo); format: cell-based, murine; details: Mus musculus, IL-3 withdrawn 48 hrs, then 24 hrs with compound
Summary of the method: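 Bcl-2-overexpressing murine FL5.12 transfectants underwent IL-3 removal for 48 hrs before a 24 hr compound treatment. Cell viability was quantified with CellTitre Glo.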

GST-Bcl-XL = GST-Bcl-XL (Homo sapiens, UniProt Q07817); assay: TR-FRET binding assay, GST-Bcl-XL with F-Bak peptide probe; details: TR-FRET Binding Affinity, GST-Bcl-XL, F-Bak peptide probe
Summary of the method: as §1

Sequence of GST-Bcl-2 (P10415 whole entry, the tested form may be a part): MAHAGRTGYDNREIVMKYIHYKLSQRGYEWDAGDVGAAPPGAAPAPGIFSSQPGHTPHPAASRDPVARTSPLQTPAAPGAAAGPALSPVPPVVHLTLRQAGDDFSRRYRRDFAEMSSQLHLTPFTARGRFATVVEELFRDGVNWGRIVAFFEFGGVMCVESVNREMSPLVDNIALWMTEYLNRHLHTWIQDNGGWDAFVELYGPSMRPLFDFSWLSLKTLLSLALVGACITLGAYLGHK
Sequence of GST-Bcl-XL (Q07817 whole entry): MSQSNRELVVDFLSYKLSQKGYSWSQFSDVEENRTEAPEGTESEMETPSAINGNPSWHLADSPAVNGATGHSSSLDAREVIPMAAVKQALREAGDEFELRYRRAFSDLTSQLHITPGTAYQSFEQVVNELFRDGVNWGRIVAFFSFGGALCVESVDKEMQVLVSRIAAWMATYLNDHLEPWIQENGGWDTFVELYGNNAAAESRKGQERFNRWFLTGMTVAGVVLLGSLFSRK

SMILES	Ki (GST-Bcl-2) [nM]	EC50 (FL5.12/Bcl-2 cells) [nM]	Ki (GST-Bcl-XL) [nM]	Binding selectivity ratio (Bcl-XL Ki/Bcl-2 Ki) (GST-Bcl-2)
CC(c1ccccc1-c1ccc(Cl)cc1)N1CCN(c2ccc(C(=O)NS(=O)(=O)c3ccc(NCC4CCOCC4)c([N+](=O)[O-])c3)c(Oc3cccc4[nH]ccc34)c2)CC1 (centres unmarked) [Example 175, 4-{4-[1-(4′-chloro-1,1′-biphenyl-2-yl)ethyl]piperazin-1-yl}-2-(1H-indol-4-yloxy)-N-({3-nitro-4-[(tetrahydro-2H-pyran-4-ylmethyl)amino]phenyl}sulfonyl)benzamide]	0.1	6.2	> 660	–
CC1(C)CCC(CN2CCN(c3ccc(C(=O)NS(=O)(=O)c4ccc(NN5CCOCC5)c([N+](=O)[O-])c4)c(Oc4cccc5[nH]ccc45)c3)CC2)=C(c2ccc(Cl)cc2)C1 [Example 262, 4-(4-{[2-(4-chlorophenyl)-4,4-dimethylcyclohex-1-en-1-yl]methyl}piperazin-1-yl)-2-(1H-indol-4-yloxy)-N-{[4-(morpholin-4-ylamino)-3-nitrophenyl]sulfonyl}benzamide]	3	176	> 660	–
CCN(CC)C1CCC(Nc2ccc(S(=O)(=O)NC(=O)c3ccc(N4CCN(CC5=C(c6ccc(Cl)cc6)CC(C)(C)CC5)CC4)cc3Oc3ccc4[nH]ccc4c3)cc2[N+](=O)[O-])CC1 (centres unmarked) [Example 201, 4-(4-{[2-(4-chlorophenyl)-4,4-dimethylcyclohex-1-en-1-yl]methyl}piperazin-1-yl)-N-[(4-{[4-(diethylamino)cyclohexyl]amino}-3-nitrophenyl)sulfonyl]-2-(1H-indol-5-yloxy)benzamide]	0.125	17.4	24.6	–
CC1(C)CCC(CN2CCN(c3ccc(C(=O)NS(=O)(=O)c4ccc(NCC5CCOCC5)c([N+](=O)[O-])c4)c(Oc4ccc5[nH]ccc5c4)c3)CC2)=C(c2ccc(Cl)cc2)C1 [Example 177, 4-(4-{[2-(4-chlorophenyl)-4,4-dimethylcyclohex-1-en-1-yl]methyl}piperazin-1-yl)-2-(1H-indol-5-yloxy)-N-({3-nitro-4-[(tetrahydro-2H-pyran-4-ylmethyl)amino]phenyl}sulfonyl)benzamide]	0.165	19.7	132	–
CC1(C)CCC(CN2CCN(c3ccc(C(=O)NS(=O)(=O)c4ccc(NC5CCC(F)(F)CC5)c([N+](=O)[O-])c4)c(Oc4ccc5[nH]ccc5c4)c3)CC2)=C(c2ccc(Cl)cc2)C1 [Example 305, 4-(4-{[2-(4-chlorophenyl)-4,4-dimethylcyclohex-1-en-1-yl]methyl}piperazin-1-yl)-N-({4-[(4,4-difluorocyclohexyl)amino]-3-nitrophenyl}sulfonyl)-2-(1H-indol-5-yloxy)benzamide]	3.68	> 500	> 660	–
CC1(C)CCC(CN2CCN(c3ccc(C(=O)NS(=O)(=O)c4ccc(NCC56CC7CC(C5)C(O)C(C7)C6)c([N+](=O)[O-])c4)c(Oc4ccc5[nH]ccc5c4)c3)CC2)=C(c2ccc(Cl)cc2)C1 (stereo not drawn) [Example 322, 4-(4-{[2-(4-chlorophenyl)-4,4-dimethylcyclohex-1-en-1-yl]methyl}piperazin-1-yl)-N-{[4-({[Cis-4-hydroxy-1-adamantyl]methyl}amino)-3-nitrophenyl]sulfonyl}-2-(1H-indol-5-yloxy)benzamide]	0.184	44.5	> 660	>3591.4
CC1(C)CCC(CN2CCN(c3ccc(C(=O)NS(=O)(=O)c4ccc(NCC5CCC(F)(F)CC5)c([N+](=O)[O-])c4)c(Oc4cccc5[nH]ncc45)c3)CC2)=C(c2ccc(Cl)cc2)C1 [Example 412, 4-(4-{[2-(4-chlorophenyl)-4,4-dimethylcyclohex-1-en-1-yl]methyl}piperazin-1-yl)-N-[(4-{[(4,4-difluorocyclohexyl)methyl]amino}-3-nitrophenyl)sulfonyl]-2-(1H-indazol-4-yloxy)benzamide]	0.021	9.48	135	6545.5
CC1(C)CCC(CN2CCN(c3ccc(C(=O)NS(=O)(=O)c4ccc(NCC5CCOCC5)c(C#N)c4)c(Oc4cccc5[nH]ccc45)c3)CC2)=C(c2ccc(Cl)cc2)C1 [Example 366, 4-(4-{[2-(4-chlorophenyl)-4,4-dimethylcyclohex-1-en-1-yl]methyl}piperazin-1-yl)-N-({3-cyano-4-[(tetrahydro-2H-pyran-4-ylmethyl)amino]phenyl}sulfonyl)-2-(1H-indol-4-yloxy)benzamide]	5.46	> 500	> 660	–
CC1(C)CCC(CN2CCN(c3ccc(C(=O)NS(=O)(=O)c4ccc(NCC5(F)CCOCC5)c([N+](=O)[O-])c4)c(Oc4cccc5[nH]ncc45)c3)CC2)=C(c2ccc(Cl)cc2)C1 [Example 409, 4-(4-{[2-(4-chlorophenyl)-4,4-dimethylcyclohex-1-en-1-yl]methyl}piperazin-1-yl)-N-[(4-{[(4-fluorotetrahydro-2H-pyran-4-yl)methyl]amino}-3-nitrophenyl)sulfonyl]-2-(1H-indazol-4-yloxy)benzamide]	< 0.01	1.2	17.5	–
CC1(C)CCC(CN2CCN(c3ccc(C(=O)NS(=O)(=O)c4ccc(NC5CCN(S(C)(=O)=O)CC5)c([N+](=O)[O-])c4)c(Oc4cccc5[nH]ccc45)c3)CC2)=C(c2ccc(Cl)cc2)C1 [Example 338, 4-(4-{[2-(4-chlorophenyl)-4,4-dimethylcyclohex-1-en-1-yl]methyl}piperazin-1-yl)-2-(1H-indol-4-yloxy)-N-[(4-{[1-(methylsulfonyl)piperidin-4-yl]amino}-3-nitrophenyl)sulfonyl]benzamide]	0.403	71.1	> 660	–
CC1(C)CCC(CN2CCN(c3ccc(C(=O)NS(=O)(=O)c4ccc(CCC5OCCO5)c([N+](=O)[O-])c4)c(Oc4ccc5[nH]ccc5c4)c3)CC2)=C(c2ccc(Cl)cc2)C1 [Example 278, 4-(4-{[2-(4-chlorophenyl)-4,4-dimethylcyclohex-1-en-1-yl]methyl}piperazin-1-yl)-N-({4-[2-(1,3-dioxolan-2-yl)ethyl]-3-nitrophenyl}sulfonyl)-2-(1H-indol-5-yloxy)benzamide]	0.71	153	> 660	–
CN(C)CCOc1cccc(-c2ccc(Cl)cc2)c1CN1CCN(c2ccc(C(=O)NS(=O)(=O)c3ccc(NC4CCN(C5CCOCC5)CC4)c([N+](=O)[O-])c3)c(Oc3cccc4[nH]ccc34)c2)CC1 [Example 199, 4-[4-({4′-chloro-3-[2-(dimethylamino)ethoxy]-1,1′-biphenyl-2-yl}methyl)piperazin-1-yl]-2-(1H-indol-4-yloxy)-N-({3-nitro-4-[(1-tetrahydro-2H-pyran-4-ylpiperidin-4-yl)amino]phenyl}sulfonyl)benzamide]	0.014	28.5	5.23	–
CC1(C)CCC(CN2CCN(c3ccc(C(=O)NS(=O)(=O)c4ccc(NCCC(F)(F)F)c([N+](=O)[O-])c4)c(Oc4cccc5[nH]ccc45)c3)CC2)=C(c2ccc(Cl)cc2)C1 [Example 323, 4-(4-{[2-(4-chlorophenyl)-4,4-dimethylcyclohex-1-en-1-yl]methyl}piperazin-1-yl)-2-(1H-indol-4-yloxy)-N-({3-nitro-4-[(3,3,3-trifluoropropyl)amino]phenyl}sulfonyl)benzamide]	0.949	92.1	> 660	–
CC1(C)CCC(CN2CCN(c3ccc(C(=O)NS(=O)(=O)c4ccc(NCCCN5CCNC(=O)C5)c([N+](=O)[O-])c4)c(Oc4ccc5[nH]ccc5c4)c3)CC2)=C(c2ccc(Cl)cc2)C1 [Example 222, 4-(4-{[2-(4-chlorophenyl)-4,4-dimethylcyclohex-1-en-1-yl]methyl}piperazin-1-yl)-2-(1H-indol-5-yloxy)-N-[(3-nitro-4-{[3-(3-oxopiperazin-1-yl)propyl]amino}phenyl)sulfonyl]benzamide]	0.107	23.7	137	–
CN(C)CCOc1cccc(-c2ccc(Cl)cc2)c1CN1CCN(c2ccc(C(=O)NS(=O)(=O)c3ccc(NC4CCN(C)CC4)c([N+](=O)[O-])c3)c(Oc3cccc4[nH]ccc34)c2)CC1 [Example 205, 4-[4-({4′-chloro-3-[2-(dimethylamino)ethoxy]-1,1′-biphenyl-2-yl}methyl)piperazin-1-yl]-2-(1H-indol-4-yloxy)-N-({4-[(1-methylpiperidin-4-yl)amino]-3-nitrophenyl}sulfonyl)benzamide]	0.005	37.5	3.57	–
CC1(C)CCC(c2ccc(Cl)cc2)=C(CN2CCN(c3ccc(C(=O)NS(=O)(=O)c4ccc(NCC5CCOCC5)c([N+](=O)[O-])c4)c(Oc4ccc5[nH]ccc5c4)c3)CC2)C1 [Example 290, 4-(4-{[2-(4-chlorophenyl)-5,5-dimethylcyclohex-1-en-1-yl]methyl}piperazin-1-yl)-2-(1H-indol-5-yloxy)-N-({3-nitro-4-[(tetrahydro-2H-pyran-4-ylmethyl)amino]phenyl}sulfonyl)benzamide]	0.365	44.7	> 660	–
CC1(C)CCC(CN2CCN(c3ccc(C(=O)NS(=O)(=O)c4ccc(NCCc5ccc(S(N)(=O)=O)cc5)c([N+](=O)[O-])c4)c(Oc4ccc5[nH]ccc5c4)c3)CC2)=C(c2ccc(Cl)cc2)C1 [Example 376, N-{[4-({2-[4-(aminosulfonyl)phenyl]ethyl}amino)-3-nitrophenyl]sulfonyl}-4-(4-{[2-(4-chlorophenyl)-4,4-dimethylcyclohex-1-en-1-yl]methyl}piperazin-1-yl)-2-(1H-indol-5-yloxy)benzamide]	22.4	> 500	> 660	–
